According to patent US11352340B2, “Pyridine and pyridimine compounds as PI3K-gamma inhibitors” (Incyte Corporation, priority 2016, dated 2022):
Counter-ions that a name gives are not always drawn. Like-named read-outs stand apart in the source and are kept apart here.

Columns and labels:
[1] = test system: Phosphorylated Ribosomal Protein S6 (RPS6) in THP-1 cells; test: THP-1 RPS6 ELISA Assay; assay type: cell-based, Human; conditions: MCP-1 stimulated, phospho-RPS6 ELISA, read-out: THP p-RPS6 ELISA IC50
Description: Example A. THP-1 RPS6 ELISA Assay
To measure the Phosphorylated Ribosomal Protein S6 (RPS6) in cell lysates, THP-1 cells (Human Acute Monocytic Leukemia) are purchased from ATCC (Manassas, Va.) and maintained in RPMI with 10% FBS (Gibco/Life Technologies, Carlsbad, Calif.). For the assay, THP-1 cells are serum starved overnight in RPMI, then plated in RPMI (2×10^5 cells/well in 90 μL) into 96-well flat-bottom tissue culture treated plates (Corning, Corning, N.Y.), in the presence or absence of a concentration range of test compounds. Covered plates are incubated for 2 hours at 37° C., 5% CO2 then treated with or without 10 nM MCP-1 (MYBioSource, San Diego, Calif.) for 15 minutes at 37° C., 5% CO2. Plates are centrifuged at 1600 RPM and supernatants are removed. Cells are lysed in Lysis Buffer (Cell Signaling, Danvers, Mass.) with Protease Inhibitor (Calbiochem/EMD, Germany), PMSF (Sigma, St Louis Mo.), HALTS (Thermo Fisher, Rockford, Ill.) for 30 min on wet ice. Cell lysates are frozen at −80° C. before testing. The lysates are tested in the Human/Mouse/Rat Phospho-RPS6 ELISA (R&D Systems, Inc. Minn, Minn.). The plate is measured using a microplate reader (SpectraMax M5—Molecular Devices, LLC Sunnyvale, Calif.) set to 450 nm with a wavelength correction of 540. IC50 determination is performed by fitting the curve of inhibitor percent inhibition versus the log of the inhibitor concentration using the GraphPad Prism 5.0 software.

[2] = molecular target: PI3Kγ (p110γ) Recombinant Human Protein (Homo sapiens (Human), UniProt P48736); test: PI3K-γ Scintillation Proximity Assay; assay type: biochemical; conditions: read-out: PI3K-gamma SPA IC50
Chain of PI3Kγ (p110γ) Recombinant Human Protein (P48736 whole entry): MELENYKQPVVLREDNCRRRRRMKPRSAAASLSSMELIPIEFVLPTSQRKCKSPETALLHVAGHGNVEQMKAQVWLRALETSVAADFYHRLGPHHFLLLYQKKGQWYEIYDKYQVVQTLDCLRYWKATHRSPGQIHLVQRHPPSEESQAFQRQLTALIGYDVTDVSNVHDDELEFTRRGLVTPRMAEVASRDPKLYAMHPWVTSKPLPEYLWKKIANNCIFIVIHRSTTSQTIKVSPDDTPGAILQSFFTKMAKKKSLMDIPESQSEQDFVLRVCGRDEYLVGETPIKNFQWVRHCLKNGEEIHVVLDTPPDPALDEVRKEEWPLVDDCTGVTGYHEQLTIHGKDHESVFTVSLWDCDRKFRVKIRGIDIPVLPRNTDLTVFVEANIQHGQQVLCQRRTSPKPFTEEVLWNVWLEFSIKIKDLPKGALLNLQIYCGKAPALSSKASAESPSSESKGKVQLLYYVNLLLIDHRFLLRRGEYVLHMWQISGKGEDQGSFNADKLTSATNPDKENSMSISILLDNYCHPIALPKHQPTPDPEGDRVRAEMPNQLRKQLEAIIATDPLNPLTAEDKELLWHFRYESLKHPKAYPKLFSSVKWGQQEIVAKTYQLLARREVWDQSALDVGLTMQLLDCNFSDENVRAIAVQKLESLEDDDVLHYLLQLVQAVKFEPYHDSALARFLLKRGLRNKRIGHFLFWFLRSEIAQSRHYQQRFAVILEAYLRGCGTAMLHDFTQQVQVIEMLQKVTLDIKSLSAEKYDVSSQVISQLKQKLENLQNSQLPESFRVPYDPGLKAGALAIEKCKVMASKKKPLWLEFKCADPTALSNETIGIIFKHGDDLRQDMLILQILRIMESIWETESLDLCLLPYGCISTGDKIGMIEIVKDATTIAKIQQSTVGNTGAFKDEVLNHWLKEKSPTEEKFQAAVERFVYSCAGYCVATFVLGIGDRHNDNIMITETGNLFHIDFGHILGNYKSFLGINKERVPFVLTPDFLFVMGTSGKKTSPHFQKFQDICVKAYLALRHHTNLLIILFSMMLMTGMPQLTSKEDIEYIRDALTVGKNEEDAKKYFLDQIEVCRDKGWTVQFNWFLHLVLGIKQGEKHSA
In short: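 Radiometric SPA: reaction at room temperature for 120 min using 2 μM ATP with [γ-33P]ATP tracer, 20 μM PIP2 substrate and 13 nM human PI3Kγ (MOPS pH 6.7, MgCl2, DTT, CHAPS; 2% DMSO). EDTA quench with WGA beads, scintillation count, and IC50 fit of percent-of-control activity.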

[3] = molecular target: PI3Kδ (p110δ/p85α) Recombinant Human Protein (Homo sapiens (Human), UniProt O00329); test: PI3Kδ Scintillation Proximity Assay; assay type: biochemical; conditions: read-out: PI3K-delta SPA IC50
Chain of PI3Kδ (p110δ/p85α) Recombinant Human Protein (O00329 whole entry): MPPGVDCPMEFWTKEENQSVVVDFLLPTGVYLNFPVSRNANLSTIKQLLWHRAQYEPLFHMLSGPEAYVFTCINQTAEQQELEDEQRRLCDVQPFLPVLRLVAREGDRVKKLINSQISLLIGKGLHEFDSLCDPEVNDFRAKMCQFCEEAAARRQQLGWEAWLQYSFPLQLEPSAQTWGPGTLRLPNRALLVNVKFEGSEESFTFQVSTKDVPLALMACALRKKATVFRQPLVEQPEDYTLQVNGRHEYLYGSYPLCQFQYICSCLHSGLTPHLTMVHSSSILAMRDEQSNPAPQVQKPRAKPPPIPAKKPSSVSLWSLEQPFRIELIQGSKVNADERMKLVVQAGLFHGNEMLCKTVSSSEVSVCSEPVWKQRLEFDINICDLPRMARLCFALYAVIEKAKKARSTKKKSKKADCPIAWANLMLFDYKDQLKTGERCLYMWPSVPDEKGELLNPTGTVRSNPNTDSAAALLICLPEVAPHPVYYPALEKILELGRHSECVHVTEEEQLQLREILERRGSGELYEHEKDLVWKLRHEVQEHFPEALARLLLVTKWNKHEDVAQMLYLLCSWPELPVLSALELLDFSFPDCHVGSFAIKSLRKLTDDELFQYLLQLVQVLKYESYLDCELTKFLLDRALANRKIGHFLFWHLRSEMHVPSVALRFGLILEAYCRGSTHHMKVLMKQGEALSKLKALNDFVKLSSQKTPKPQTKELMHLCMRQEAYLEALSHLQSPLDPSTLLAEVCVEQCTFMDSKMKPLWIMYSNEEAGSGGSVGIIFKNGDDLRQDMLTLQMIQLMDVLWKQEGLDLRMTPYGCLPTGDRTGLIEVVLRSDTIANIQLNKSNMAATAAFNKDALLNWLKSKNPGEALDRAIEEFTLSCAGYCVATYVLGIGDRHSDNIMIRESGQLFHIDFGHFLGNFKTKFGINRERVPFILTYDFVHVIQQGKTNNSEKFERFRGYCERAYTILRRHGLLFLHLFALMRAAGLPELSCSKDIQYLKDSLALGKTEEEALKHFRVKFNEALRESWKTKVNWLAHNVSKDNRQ
Chain of PI3Kδ (p110δ/p85α) Recombinant Human Protein (P27986 whole entry partner): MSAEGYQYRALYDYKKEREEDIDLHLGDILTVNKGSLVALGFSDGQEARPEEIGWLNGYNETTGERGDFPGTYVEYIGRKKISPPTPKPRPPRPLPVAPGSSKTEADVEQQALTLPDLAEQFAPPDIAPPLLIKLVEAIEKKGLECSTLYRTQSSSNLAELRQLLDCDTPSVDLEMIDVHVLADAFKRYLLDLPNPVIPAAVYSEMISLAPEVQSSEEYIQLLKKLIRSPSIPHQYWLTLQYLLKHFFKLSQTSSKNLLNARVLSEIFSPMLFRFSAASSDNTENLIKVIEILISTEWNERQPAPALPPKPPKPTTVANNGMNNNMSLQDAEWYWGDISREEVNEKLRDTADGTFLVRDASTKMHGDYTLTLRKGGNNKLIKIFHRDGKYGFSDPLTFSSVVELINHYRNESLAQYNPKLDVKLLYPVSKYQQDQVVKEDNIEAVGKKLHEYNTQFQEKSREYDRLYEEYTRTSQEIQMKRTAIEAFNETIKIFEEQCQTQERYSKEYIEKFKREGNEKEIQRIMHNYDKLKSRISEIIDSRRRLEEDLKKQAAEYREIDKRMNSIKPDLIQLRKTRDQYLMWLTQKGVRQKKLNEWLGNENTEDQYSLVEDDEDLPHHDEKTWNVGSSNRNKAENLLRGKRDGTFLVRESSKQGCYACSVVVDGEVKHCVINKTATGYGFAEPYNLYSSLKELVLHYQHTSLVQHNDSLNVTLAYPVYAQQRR
In short: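 Assay conditions: 2 μM ATP (radiolabelled), 20 μM PIP2, 3.4 nM PI3Kδ, 20 mM MOPS pH 6.7 with 10 mM MgCl2, 5 mM DTT, 0.03% CHAPS, 2 h at room temperature. Signal from bead-captured 33P product; IC50 versus solvent control.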

SMILES	IC50 ([1]; Homo sapiens) [µM]	IC50 [2] [µM]	IC50 [3] [µM]	IC50 [1] [µM]
CCCCNc1nnc(-c2cc(-c3cncc(OC)c3)ccn2)[nH]1 [Example 66, N-Butyl-5-(5-methoxy-3,4′-bipyridin-2′-yl)-4H-1,2,4-triazol-3-amine Trifluoroacetate Salt]	> 5	≤ 0.5	> 0.5	–
Cc1c[nH]c(-c2cc(-c3cncc(S(=O)(=O)N[C@H]4CC[C@H](O)CC4)c3)ccn2)n1 [Example 299, N-((1r,4r)-4-Hydroxycyclohexyl)-2′-(4-methyl-1H-imidazol-2-yl)-[3,4′-bipyridine]-5-sulfonamide trifluoroacetate salt]	–	≤ 0.05	≤ 0.05	≤ 0.3
COc1cncc(-c2ccnc(-c3nc4ccccc4[nH]3)n2)c1 [Example 94, 2-[4-(5-Methoxypyridin-3-yl)pyrimidin-2-yl]-1H-benzimidazole Trifluoroacetate Salt]	1 to 5	≤ 0.5	> 0.5	–
Cc1nc(-c2cc(-c3cncc(C(=O)NC4CCOCC4)c3)ccn2)[nH]c1C [Example 160, 2′-(4,5-Dimethyl-1H-imidazol-2-yl)-N-(tetrahydro-2H-pyran-4-yl)-3,4′-bipyridine-5-carboxamide trifluoroacetate salt]	1 to 5	≤ 0.05	≤ 0.5	–
Cc1nc(-c2cc(-c3cncc(N4CC[C@H](O)C4)c3)ccn2)[nH]c1C [Example 232, (3S)-1-[2′-(4,5-Dimethyl-1H-imidazol-2-yl)-3,4′-bipyridin-5-yl]pyrrolidin-3-ol]	0.3 to 1	≤ 0.1	≤ 0.5	–
Cc1nc(-c2cc(-c3cncc(C(=O)N(C)CCO)c3)ccn2)[nH]c1C [Example 201, 2′-(4,5-Dimethyl-1H-imidazol-2-yl)-N-(2-hydroxyethyl)-N-methyl-3,4′-bipyridine-5-carboxamide trifluoroacetate salt]	0.3 to 1	≤ 0.05	≤ 0.5	–
Cc1nc(-c2cc(-c3cncc(N4CC[C@@H](O)C4)c3)ccn2)[nH]c1C [Example 231, (3R)-1-[2′-(4,5-Dimethyl-1H-imidazol-2-yl)-3,4′-bipyridin-5-yl]pyrrolidin-3-ol]	0.3 to 1	≤ 0.05	≤ 0.1	–
Cc1nc(-c2cc(-c3cncc(C(=O)N(C)CC#N)c3)ccn2)[nH]c1C [Example 203, N-(Cyanomethyl)-2′-(4,5-dimethyl-1H-imidazol-2-yl)-N-methyl-3,4′-bipyridine-5-carboxamide]	0.3 to 1	≤ 0.05	≤ 0.1	–
Cc1nc(-c2cc(-c3cncc(N4CCOCC4)c3)ccn2)[nH]c1C1CC1 [Example 104, 4-(2′-(5-Cyclopropyl-4-methyl-1H-imidazol-2-yl)-3,4′-bipyridin-5-yl)morpholine trifluoroacetate salt]	≤ 0.3	≤ 0.05	≤ 0.05	–
COCC(=O)Nc1cncc(-c2ccnc(-c3ncc(-c4ccccc4)[nH]3)c2)c1 [Example 131, 2-Methoxy-N-[2′-(5-phenyl-1H-imidazol-2-yl)-3,4′-bipyridin-5-yl]acetamide Trifluoroacetate Salt]	> 5	≤ 0.05	≤ 0.05	–
Cc1nc(-c2cc(-c3cncc(C(=O)N4CCC5(CC4)COC5)c3)ccn2)[nH]c1C [Example 165, (2′-(4,5-Dimethyl-1H-imidazol-2-yl)-3,4′-bipyridin-5-yl)(2-oxa-7-azaspiro[3.5]nonan-7-yl)methanone trifluoroacetate salt]	≤ 0.3	≤ 0.05	≤ 0.1	–
Cc1[nH]c(-c2cc(-c3cncc(N4CCOCC4)c3)ccn2)nc1CCO [Example 123, 2-[5-Methyl-2-(5-morpholin-4-yl-3,4′-bipyridin-2′-yl)-1H-imidazol-4-yl]ethanol]	≤ 0.3	≤ 0.05	≤ 0.05	–
Cc1nc(-c2cc(-c3cncc(C(=O)N4CCC5(CC5)C4)c3)ccn2)[nH]c1C [Example 212, 5-(5-Azaspiro[2.4]hept-5-ylcarbonyl)-2′-(4,5-dimethyl-1H-imidazol-2-yl)-3,4′-bipyridine trifluoroacetate salt]	≤ 0.3	≤ 0.05	≤ 0.05	–
Cc1nc(-c2cc(-c3cncc(C(=O)N4CCCC4)c3)ccn2)[nH]c1C [Example 151, (2′-(4,5-Dimethyl-1H-imidazol-2-yl)-3,4′-bipyridin-5-yl)(pyrrolidin-1-yl)methanone]	≤ 0.3	≤ 0.05	≤ 0.05	–
CS(=O)(=O)c1cncc(-c2ccnc(-c3ncc(-c4ccccc4)[nH]3)c2)c1 [Example 40, 5-(Methylsulfonyl)-2′-(5-phenyl-1H-imidazol-2-yl)-3,4′-bipyridine trifluoroacetate salt]	≤ 0.3	≤ 0.05	≤ 0.05	–
Cc1[nH]c(-c2cc(-c3cncc(S(C)(=O)=O)c3)ccn2)nc1C(=O)O [Example 119, 5-Methyl-2-(5-(methylsulfonyl)-3,4′-bipyridin-2′-yl)-1H-imidazole-4-carboxylic acid trifluoroacetate salt]	> 5	≤ 0.05	> 0.5	–
Cc1[nH]c(-c2cc(-c3cncc(N4CCOCC4)c3)ccn2)nc1C(=O)NC1CCOCC1 [Example 269, 5-Methyl-2-(5-morpholin-4-yl-3,4′-bipyridin-2′-yl)-N-(tetrahydro-2H-pyran-4-yl)-1H-imidazole-4-carboxamide trifluoroacetate salt]	0.3 to 1	≤ 0.05	≤ 0.05	–
CS(=O)(=O)c1cncc(-c2ccnc(-c3ncc(C4CCC4)[nH]3)c2)c1 [Example 113, 2′-(5-Cyclobutyl-1H-imidazol-2-yl)-5-(methylsulfonyl)-3,4′-bipyridine trifluoroacetate salt]	≤ 0.3	≤ 0.05	≤ 0.05	–
CCC1CCN(C(=O)c2cncc(-c3ccnc(-c4nc(C)c(C)[nH]4)c3)c2)C1 (stereo not drawn) [Example 211, 2′-(4,5-Dimethyl-1H-imidazol-2-yl)-5-[(3-ethylpyrrolidin-1-yl)carbonyl]-3,4′-bipyridine trifluoroacetate salt]	≤ 0.3	≤ 0.05	≤ 0.05	–
Cc1[nH]c(-c2cc(-c3cncc(S(C)(=O)=O)c3)ccn2)nc1C(N)=O [Example 249, 5-Methyl-2-[5-(methylsulfonyl)-3,4′-bipyridin-2′-yl]-1H-imidazole-4-carboxamide trifluoroacetate salt]	1 to 5	≤ 0.05	≤ 0.05	–
Cc1nc(-c2cc(-c3cncc(C(=O)NCC4CCC4)c3)ccn2)[nH]c1C [Example 206, N-(Cyclobutylmethyl)-2′-(4,5-dimethyl-1H-imidazol-2-yl)-3,4′-bipyridine-5-carboxamide trifluoroacetate salt]	1 to 5	≤ 0.1	≤ 0.1	–
Cc1[nH]c(-c2cc(-c3cncc(S(C)(=O)=O)c3)ccn2)nc1C(=O)NC(C)C [Example 253, N-Isopropyl-5-methyl-2-[5-(methylsulfonyl)-3,4′-bipyridin-2′-yl]-1H-imidazole-4-carboxamide trifluoroacetate salt]	≤ 0.3	≤ 0.05	≤ 0.05	–
Cc1nc(-c2cc(-c3cncc(Nc4ccccc4)c3)ccn2)[nH]c1C [Example 233, 2′-(4,5-Dimethyl-1H-imidazol-2-yl)-N-phenyl-3,4′-bipyridin-5-amine]	1 to 5	≤ 0.05	≤ 0.5	–
CS(=O)(=O)c1cncc(-c2ccnc(-c3nc(C4CCCCC4)c(N)[nH]3)c2)c1 [Example 120, 4-Cyclohexyl-2-[5-(methylsulfonyl)-3,4′-bipyridin-2′-yl]-1H-imidazol-5-amine Trifluoroacetate Salt]	> 5	≤ 0.1	≤ 0.05	–
Cc1nc(-c2cc(-c3cncc(S(C)(=O)=O)c3)ccn2)[nH]c1C1CC1 [Example 116, 2′-(5-Cyclopropyl-4-methyl-1H-imidazol-2-yl)-5-(methylsulfonyl)-3,4′-bipyridine trifluoroacetate salt]	≤ 0.3	≤ 0.05	≤ 0.05	–
